Holding throughout (experiment): ≥ marks a high value that may be exact or a test limit, other limits are often not marked, values filed in µg/mL are converted to µM
Assay [1] relates to Candida albicans ATCC 2002.
For assay [2], the system named is Escherichia coli ATCC 25922.
Assay [3] relates to Pseudomonas aeruginosa CMCCB 10104.
The test system of assay [4] is Staphylococcus aureus ATCC 25923.
In assay [5] the test system is Escherichia coli ATCC 25726.
The test system of a further assay is Bacillus subtilis.
The test system of the next assay is Escherichia coli ML-35p.
Assay [6] relates to Pseudomonas aeruginosa ATCC 27853.
Assay [7] deals with Pseudomonas aeruginosa PAO1.
Assay [8] deals with Staphylococcus aureus ATCC 2592.
The test system of assay [9] is Staphylococcus aureus ATCC 43300.

Molecules are shown by their SMILES. ≈ marks a conversion by molar mass, not a printed value.

Usually MIC stands for the least concentration at which growth counts as inhibited.

`CC[C@H](C)[C@H](NC(=O)CNC(=O)[C@H](CS)NC(=O)[C@H](Cc1ccccc1)NC(=O)[C@H](CCCCN)NC(=O)[C@H](CCCN=C(N)N)NC(=O)[C@@H]1CCCN1C(=O)[C@H](CCCN=C(N)N)NC(=O)[C@H](CC(=O)O)NC(=O)[C@@H]1CCCN1C(=O)[C@H](C)N)C(=O)N[C@@H](CC(C)C)C(=O)NCC(=O)O` [APDRPRKFCGILG]: the minimal inhibitory concentration (MIC) in assay [1] was ≥ 140 µM; in [2], > 140 µM; in assay [3], ≥ 140 µM; in assay [4], > 140 µM.

For the molecule `CC[C@H](C)[C@H](NC(=O)[C@H](CC(N)=O)NC(=O)[C@@H](NC(=O)[C@H](C)N)[C@@H](C)O)C(=O)N1CCC[C@H]1C(=O)N[C@@H](Cc1ccccc1)C(=O)N[C@@H](CCCCN)C(=O)N[C@H](C(=O)N[C@@H](Cc1cnc[nH]1)C(=O)N[C@@H](Cc1ccccc1)C(=O)N[C@@H](CCCN=C(N)N)C(=O)N[C@H]1CSSC[C@@H](C(=O)O)NC(=O)[C@H](Cc2ccccc2)NC(=O)[C@H](C)NC(=O)[C@H](C)NC(=O)[C@H](CCCCN)NC1=O)C(C)C` [ATNIPFKVHFRCKAAFC], the MIC is 24.1 µM (≈ 47 µg/mL) in assay [1], 12 µM (≈ 23.5 µg/mL) in assay [2], 24.1 µM (≈ 47 µg/mL) in assay [3] and > 24.1 µM in assay [4].

Consider `CSCC[C@H](NC(=O)[C@H](CCCCN)NC(=O)[C@@H](NC(=O)[C@H](CCC(=O)O)NC(=O)[C@H](CCCCN)NC(=O)[C@H](CCCCN)NC(=O)[C@H](CCCCN)NC(=O)[C@H](CCCCN)NC(=O)[C@H](CC(C)C)NC(=O)[C@H](CCSC)NC(=O)[C@@H](N)CCC(=O)O)C(C)C)C(=O)N[C@@H](CCC(=O)O)C(=O)N[C@@H](CCCN=C(N)N)C(=O)N[C@@H](CCCCN)C(=O)N[C@H](C(=O)O)[C@@H](C)O` [EMLKKKKEVKMERKT], for which the minimum inhibitory concentration (MIC) is ≥ 105 µM in [1], > 105 µM in assay [2], ≥ 105 µM in assay [3] and > 105 µM in assay [4].

On to `CC[C@H](C)[C@@H]1NC(=O)[C@H](C)NC(=O)[C@@H](NC(=O)[C@H](Cc2ccc(O)cc2)NC(=O)[C@H](C)NC(=O)[C@H](C)NC(=O)[C@@H]2CCCN2C(=O)[C@@H](NC(=O)[C@@H](NC(=O)[C@H](CCCCN)NC(=O)[C@@H](NC(=O)[C@H](C)NC(=O)[C@H](C)NC(=O)[C@H](CCCCN)NC(=O)[C@@H](NC(=O)[C@H](CC(C)C)NC(=O)CNC(=O)CNC(=O)[C@H](CCSC)NC(=O)[C@@H](N)Cc2ccccc2)[C@@H](C)CC)[C@@H](C)O)[C@@H](C)CC)C(C)C)CSSC[C@@H](C(=O)O)NC(=O)[C@H](CCCCN)NC(=O)[C@H](CCCCN)NC(=O)[C@H]([C@@H](C)O)NC1=O` [FMGGLIKAATKIVPAAYCAITKKC], for which the minimal inhibitory concentration (MIC) in [5] came out at 25 µM (≈ 62.5 µg/mL); in assay [4] it was 3.2 µM (≈ 7.99 µg/mL).

Consider `CC[C@H](C)[C@H](NC(=O)[C@H](CCCCN)NC(=O)[C@H](CCCCN)NC(=O)CNC(=O)[C@H](C)NC(=O)CNC(=O)[C@H](Cc1ccccc1)NC(=O)[C@@H](NC(=O)[C@H](CO)NC(=O)CNC(=O)[C@H](CC(C)C)NC(=O)[C@H](CC(C)C)NC(=O)CN)[C@@H](C)CC)C(=O)N[C@@H](C)C(=O)N[C@H]1CSSC[C@@H](C(=O)O)NC(=O)[C@H](CC(C)C)NC(=O)CNC(=O)[C@H](CO)NC(=O)[C@H](CC(C)C)NC(=O)[C@H](C)NC1=O` [GLLGSIFGAGKKIACALSGLC], for which the MIC in assay [5] amounted to 15.7 µM (≈ 31 µg/mL); in assay [4], 31.6 µM (≈ 62.4 µg/mL).

In the case of `CC[C@H](C)[C@H](N)C(=O)N[C@@H](CC(C)C)C(=O)NCC(=O)N[C@@H](CCCCN)C(=O)N[C@@H](CC(C)C)C(=O)N[C@@H](CC(C)C)C(=O)N[C@@H](CO)C(=O)N[C@H](C(=O)N[C@@H](C)C(=O)N[C@@H](C)C(=O)N[C@@H](CCCCN)C(=O)N[C@@H](CC(C)C)C(=O)N[C@@H](CC(C)C)C(=O)N[C@@H](CO)C(=O)N[C@@H](CCCCN)C(=O)N[C@@H](CC(C)C)C(N)=O)[C@@H](C)O` [ILGKLLSTAAKLLSKL], the MIC in [5] was 16 µM (≈ 26.7 µg/mL); in assay [4], 2 µM (≈ 3.34 µg/mL).

As for `CC[C@H](C)[C@H](N)C(=O)N[C@H](C(=O)N[C@H](C(=O)N1CCC[C@H]1C(=O)N1CCC[C@H]1C(=O)N[C@H](C(=O)N[C@H](C(=O)N[C@@H](CCCCN)C(=O)N[C@@H](CC(=O)O)C(=O)N[C@H](C(=O)N[C@@H](CC(C)C)C(=O)N[C@@H](CCCCN)C(=O)N[C@@H](CCCCN)C(=O)N[C@@H](Cc1ccccc1)C(=O)N[C@@H](Cc1ccccc1)C(=O)N[C@@H](CCCCN)C(=O)NCC(=O)NCC(=O)N[C@H](C(=O)N[C@@H](C)C(=O)NCC(=O)N[C@H](C(=O)N[C@@H](CCSC)C(=O)NCC(=O)N[C@@H](CCCCN)C(=O)N[C@@H](CO)C(=O)N[C@@H](CCC(N)=O)C(=O)O)C(C)C)[C@@H](C)CC)[C@@H](C)O)[C@@H](C)CC)[C@@H](C)CC)[C@@H](C)CC)[C@@H](C)O` [ITIPPIIKDTLKKFFKGGIAGVMGKSQ], the MIC was ≥ 80 µM in assay [5] and 40 µM (≈ 116 µg/mL) in assay [4].

As for `CC[C@H](C)[C@H](NC(=O)[C@H](C)NC(=O)[C@@H](NC(=O)[C@@H](NC(=O)[C@H](CCCCN)NC(=O)CNC(=O)[C@H](CCCCN)NC(=O)[C@H](CC(=O)O)NC(=O)[C@H](CCCN=C(N)N)NC(=O)[C@@H](NC(=O)[C@@H](N)CO)[C@@H](C)CC)[C@@H](C)O)[C@@H](C)CC)C(=O)N[C@@H](CC(=O)O)C(=O)N[C@@H](CC(C)C)C(=O)N[C@@H](C)C(=O)N[C@@H](CCCCN)C(=O)N[C@@H](CO)C(=O)N[C@@H](C)C(=O)NCC(=O)N[C@H](C(=O)NCC(=O)N[C@H](C(=O)N[C@@H](CC(C)C)C(=O)N[C@@H](CCCCN)C(=O)N[C@H](C(=O)N[C@@H](CC(C)C)C(=O)N[C@@H](CCSC)C(=O)N[C@H]1CSSC[C@@H](C(=O)O)NC(=O)[C@H](CO)NC(=O)[C@H](CCCCN)NC(=O)[C@H](CC(=O)O)NC(=O)[C@H](CC(C)C)NC(=O)[C@H](CCCCN)NC1=O)[C@@H](C)O)C(C)C)[C@@H](C)O` [SIRDKGKTIAIDLAKSAGTGVLKTLMCKLDKSC], the MIC came out at 8.66 µM (≈ 30 µg/mL) against Bacillus subtilis; 2.89 µM (≈ 9.99 µg/mL) in [1]; 2.89 µM (≈ 9.99 µg/mL) against Escherichia coli ML-35p; 0.721 µM (≈ 2.5 µg/mL) in assay [6]; 0.721 µM (≈ 2.5 µg/mL) in [7]; 2.89 µM (≈ 9.99 µg/mL) in assay [8]. This molecule came in with an MIC in [9] of 2.89 µM (≈ 9.99 µg/mL).

As to `CC[C@H](C)[C@H](NC(=O)[C@H](C)NC(=O)[C@H](CCSC)NC(=O)[C@@H](NC(=O)[C@H](CCCCN)NC(=O)[C@@H](NC(=O)[C@H](CCCCN)NC(=O)[C@H](CC(=O)O)NC(=O)[C@H](CCCN=C(N)N)NC(=O)[C@@H](NC(=O)[C@@H](N)CO)[C@@H](C)CC)[C@@H](C)CC)[C@@H](C)O)C(=O)N[C@@H](CC(=O)O)C(=O)N[C@@H](CC(C)C)C(=O)N[C@@H](C)C(=O)N[C@@H](CCCCN)C(=O)N[C@@H](CO)C(=O)N[C@@H](C)C(=O)NCC(=O)N[C@H](C(=O)NCC(=O)N[C@H](C(=O)N[C@@H](CC(C)C)C(=O)N[C@@H](CCCCN)C(=O)N[C@H](C(=O)N[C@@H](CC(C)C)C(=O)N[C@H](C(=O)N[C@H]1CSSC[C@@H](C(=O)O)NC(=O)[C@H](CO)NC(=O)[C@H](CCCCN)NC(=O)[C@H](CC(=O)O)NC(=O)[C@H](CC(C)C)NC(=O)[C@H](CCCCN)NC1=O)[C@@H](C)CC)[C@@H](C)O)C(C)C)[C@@H](C)O` [SIRDKIKTMAIDLAKSAGTGVLKTLICKLDKSC], the MIC with Bacillus subtilis amounted to 11.4 µM (≈ 40 µg/mL); in [1], 2.84 µM (≈ 9.99 µg/mL); against Escherichia coli ML-35p, 2.84 µM (≈ 9.99 µg/mL); in assay [6] it was 1.42 µM (≈ 5 µg/mL); in [7], 1.42 µM (≈ 5 µg/mL); in [8] it was 2.84 µM (≈ 9.99 µg/mL). Besides, the minimum inhibitory concentration (MIC) in [9] came to 4.26 µM (≈ 15 µg/mL).

The values are drawn from DBAASP.
